{"source": "paper PMC7651685", "about": "(Psychopharmacology, 2020)", "origin": "cited, not measured here", "system": "DAT", "set-up": "method as in Hasenhuetl et al. [2015]", "conditions": "ref Hasenhuetl et al. [2015]; cited from earlier work", "note": "Where a name gives a salt, the structure may show the parent alone.", "data": [{"smiles": "COC(=O)C(c1ccccc1)C1CCCCN1", "note": "(racemic) [MPH, (±)-Methyl α-Phenyl-α-(2-piperidyl)acetate hydrochloride, reference compound]", "values": [{"measurement": "Association rate (kon) to DAT", "result": 830000, "unit": "M⁻¹ s⁻¹"}]}]}
